Assay results reported in patent US4340725A (priority 1979, dated 1982).
In brackets after ≈: the same amount, converted by molar mass.

What was measured:
Solubility of DC-38-V = format: physicochemical
[1] = test system: Ehrlich ascites carcinoma; test: Effect on Ehrlich ascites carcinoma; format: in vivo, ddY-strain mice; settings: for LTS: ≥60 days
Procedure: Five male ddY-strain mice having a weight of about 20 g are used for each group as test animals; and 5×10^6 cells of Ehrlich ascites carcinoma are implanted in the animals intraperitoneally. After 24 hours following implantation or once a day for five days from 24 hours after implantation, 0.2 ml PBS suspension containing DC-38-V in various concentrations is administered intraperitoneally.
For comparison, mitomycin C is used as test compound.

[2] = Stability (solid; acidic, neutral, alkaline liquid; sun light or shielding); format: physicochemical
Source text: The stability of compound is illustrated in Table 1.

[3] = test system: Salmonella typhosa ATCC 9992; test: in vitro antibacterial spectra, agar dilution method (pH 7.0); format: cell-based; settings: Salmonella enterica, read-out: Minimum Inhibitory Concentration (MIC)
Source text: (§1) The in vitro antibacterial spectra of DC-38-V determined by the agar dilution method (pH 7.0) is illustrated in the following Table 7.

[4] = test system: Bacillus subtilis No. 10707; test: as above; format: cell-based; settings: read-out: Minimum Inhibitory Concentration (MIC)
Source text: as §1

[5] = test system: Shigella sonnei ATCC 9290; test: as above; format: cell-based; settings: ATCC9290, read-out: Minimum Inhibitory Concentration (MIC)
Source text: as §1

Escherichia coli ATCC 26 = test: as above; format: cell-based; settings: ATCC26, read-out: Minimum Inhibitory Concentration (MIC)
Source text: as §1

[6] = test system: Klebsiella pneumoniae ATCC 10031; test: as above; format: cell-based; settings: ATCC10031, read-out: Minimum Inhibitory Concentration (MIC)
Source text: as §1

[7] = test system: Staphylococcus aureus ATCC 6538 P; test: as above; format: cell-based; settings: ATCC6538, read-out: Minimum Inhibitory Concentration (MIC)
Source text: as §1

MH 134 ascites tumor = test: Effect on MH 134 ascites tumor; format: in vivo, C3H-strain mice; settings: for Long term survivors (LTS): ≥40 days
Procedure: Six male C3H-strain mice having a weight of about 20 g are used for each group as test animals; and 5×10^6 cells of MH 134 ascites tumor are implanted in the animals intraperitoneally. After 24 hours following implantation, 0.2 ml PBS suspension containing DC-38-V in various concentrations is administered intraperitoneally.
(§2) For comparison, 0.2 ml PBS solution containing mitomycin C is administered to a group of animals intraperitoneally at the same time as the test compound.

[8] = test system: Lymphocytic leukemia P-388 tumor; test: Effect on Lymphocytic leukemia P-388 tumor; format: in vivo, CDF1 mice
Procedure: Five male CDF1 mice having a weight of about 22 g are used for each group as test animals; and 1×10^6 cells of Lymphocytic leukemia P-388 tumor are implanted intraperitoneally in the test animals. Twenty-four hours following implantation, 0.2 ml PBS solution containing DC-38-V in various concentrations is administered intraperitoneally.
For comparison, 0.2 ml PBS solution containing mitomycin C is administered to a group of test animals intraperitoneally at the same time as the test compound.

Sarcoma 180 solid tumor = test: Effect on sarcoma 180 solid tumor; format: in vivo, ddY-strain mice; settings: 7 days after implantation
Procedure: Six male ddY-strain mice having a weight of about 20 g are used for each group as test animals; and 5×10^6 cells of Sarcoma 180 ascites tumor are implanted subcutaneously in the animals. After 24 hours following implantation, 0.2 ml phosphate buffered saline (PBS) containing DC-38-V in various concentrations is administered intraperitoneally.
Then the suspension is diluted with PBS to obtain suspensions having various concentrations of test compound.
As a control, PBS solution containing Tween 80 is used. The test animals are not affected by the control solution. PBS comprises 0.8 g/dl NaCl, 0.02 g/dl KCl, […] Na2 HPO4, and 0.02 g/dl KH2 PO4 (pH 7.2).
as §2
Seven days after implantation, the average tumor volume (mm^3) and T/C (T: average tumor volume of the group treated with the test compound, C: that of control) are determined.

acute toxicity = settings: mouse, in vivo, ip; mice, intraperitoneally
Procedure: The acute toxicity (LD50) of DC-38-V is >1000 mg/kg when the test compound is administered intraperitoneally to mice.

[9] = 25 × 5 mg/kg i.p., once a day for five days
[10] = 50 × 5 mg/kg i.p., once a day for five days
[11] = 100 × 5 mg/kg i.p., once a day for five days

C=Cc1cc(OC)c2c(c1)c(=O)oc1c2cc(OC)c2c(O)ccc(C3OC(C(C)O)C(O)C3O)c21 (stereo not shown) [DC-38-V]
Solubility (Solubility of DC-38-V; acetone): slightly soluble
Solubility (Solubility of DC-38-V; benzene): slightly soluble
Solubility (Solubility of DC-38-V; chloroform): slightly soluble
Solubility (Solubility of DC-38-V; dimethylformamide): soluble
Solubility (Solubility of DC-38-V; dimethylsulfoxide): soluble
Solubility (Solubility of DC-38-V; ether): almost insoluble
Solubility (Solubility of DC-38-V; ethyl acetate): slightly soluble
Solubility (Solubility of DC-38-V; methanol): slightly soluble
Solubility (Solubility of DC-38-V; petroleum ether): almost insoluble
Solubility (Solubility of DC-38-V; pyridine): soluble
Solubility (Solubility of DC-38-V; tetrahydrofuran): soluble
Solubility (Solubility of DC-38-V; water): almost insoluble
ILS [1, 9]: > 315%
MST [1, 9]: > 49.8 days
LTS [1, 9]: 3/5
ILS ([1]; 50 × 1 mg/kg i.p.): 114%
MST ([1]; 50 × 1 mg/kg i.p.): 17.4 days
LTS ([1]; 50 × 1 mg/kg i.p.): 0/5
ILS [1, 10]: > 358%
MST [1, 10]: > 56.6 days
LTS [1, 10]: 4/5
ILS ([1]; 100 × 1 mg/kg i.p.): > 202%
MST ([1]; 100 × 1 mg/kg i.p.): > 30.6 days
LTS ([1]; 100 × 1 mg/kg i.p.): 1/5
ILS [1, 11]: > 380%
MST [1, 11]: > 60 days
LTS [1, 11]: 5/5
ILS ([1]; 200 × 1 mg/kg i.p.): > 264%
MST ([1]; 200 × 1 mg/kg i.p.): > 40.2 days
LTS ([1]; 200 × 1 mg/kg i.p.): 2/5
ILS ([1]; 400 × 1 mg/kg i.p.): > 275%
MST ([1]; 400 × 1 mg/kg i.p.): > 41.8 days
LTS ([1]; 400 × 1 mg/kg i.p.): 2/5
Stability ([2]; Liquid acidic, shielding): stable
Stability ([2]; Liquid alkaline, shielding): unstable
Stability ([2]; Liquid alkaline, sun light): unstable
Stability ([2]; Liquid neutral, shielding): stable
Stability ([2]; Solid, shielding): stable
Stability ([2]; Solid, sun light): unstable
MIC [3]: > 75 µg/mL
MIC [4]: 0.0375 µg/mL (≈ 0.0758 µM)
MIC [5]: > 75 µg/mL
MIC (Escherichia coli ATCC 26): 18.8 µg/mL (≈ 37.9 µM)
MIC [6]: > 75 µg/mL
MIC [7]: 0.0375 µg/mL (≈ 0.0758 µM)
ILS (MH 134 ascites tumor; 100 mg/kg i.p.): > 184%
MST (MH 134 ascites tumor; 100 mg/kg i.p.): > 31.5 days
Long term survivors (LTS) (MH 134 ascites tumor; 100 mg/kg i.p.): 3/6
ILS (MH 134 ascites tumor; 200 mg/kg i.p.): > 310%
MST (MH 134 ascites tumor; 200 mg/kg i.p.): > 53.0 days
Long term survivors (LTS) (MH 134 ascites tumor; 200 mg/kg i.p.): 6/6
ILS (MH 134 ascites tumor; 400 mg/kg i.p.): > 231%
MST (MH 134 ascites tumor; 400 mg/kg i.p.): > 39.5 days
Long term survivors (LTS) (MH 134 ascites tumor; 400 mg/kg i.p.): 2/6
increased life span (ILS) ([8]; 50 mg/kg i.p.): 138%
mean survival time (MST) ([8]; 50 mg/kg i.p.): 13.4 days
increased life span (ILS) ([8]; 100 mg/kg i.p.): 141%
mean survival time (MST) ([8]; 100 mg/kg i.p.): 14.5 days
increased life span (ILS) ([8]; 200 mg/kg i.p.): 155%
mean survival time (MST) ([8]; 200 mg/kg i.p.): 16.0 days
increased life span (ILS) ([8]; 400 mg/kg i.p.): 162%
mean survival time (MST) ([8]; 400 mg/kg i.p.): 16.7 days
T/C (average tumor volume) (Sarcoma 180 solid tumor; 100 mg/kg i.p.): 0.76
average tumor volume (V) (Sarcoma 180 solid tumor; 100 mg/kg i.p.): 1,085 mm^3
T/C (average tumor volume) (Sarcoma 180 solid tumor; 200 mg/kg i.p.): 0.62
average tumor volume (V) (Sarcoma 180 solid tumor; 200 mg/kg i.p.): 874 mm^3
T/C (average tumor volume) (Sarcoma 180 solid tumor; 400 mg/kg i.p.): 0.40
average tumor volume (V) (Sarcoma 180 solid tumor; 400 mg/kg i.p.): 562 mm^3
LD50 (acute toxicity): > 1000 mg/kg

CO[C@@]12[C@H](COC(N)=O)C3=C(C(=O)C(C)=C(N)C3=O)N1C[C@@H]1N[C@@H]12 [Mitomycin C, mitomycin C, reference compound]
ILS ([1]; 2.1 × 1 mg/kg): 122%
MST ([1]; 2.1 × 1 mg/kg): 18.6 days
LTS ([1]; 2.1 × 1 mg/kg): 0/5
ILS ([1]; 4.2 × 1 mg/kg): > 203%
MST ([1]; 4.2 × 1 mg/kg): > 30.8 days
LTS ([1]; 4.2 × 1 mg/kg): 1/5
ILS ([1]; 5.6 × 1 mg/kg): 122%
MST ([1]; 5.6 × 1 mg/kg): 18.6 days
LTS ([1]; 5.6 × 1 mg/kg): 0/5
ILS (MH 134 ascites tumor; 1.05 mg/kg i.p.): 106%
MST (MH 134 ascites tumor; 1.05 mg/kg i.p.): 18.1 days
Long term survivors (LTS) (MH 134 ascites tumor; 1.05 mg/kg i.p.): 0/6
ILS (MH 134 ascites tumor; 2.1 mg/kg i.p.): 116%
MST (MH 134 ascites tumor; 2.1 mg/kg i.p.): 19.8 days
Long term survivors (LTS) (MH 134 ascites tumor; 2.1 mg/kg i.p.): 0/6
ILS (MH 134 ascites tumor; 4.2 mg/kg i.p.): 120%
MST (MH 134 ascites tumor; 4.2 mg/kg i.p.): 20.5 days
Long term survivors (LTS) (MH 134 ascites tumor; 4.2 mg/kg i.p.): 0/6
ILS (MH 134 ascites tumor; 8.4 mg/kg i.p.): 55%
MST (MH 134 ascites tumor; 8.4 mg/kg i.p.): 9.4 days
Long term survivors (LTS) (MH 134 ascites tumor; 8.4 mg/kg i.p.): 0/6
increased life span (ILS) ([8]; 4.2 mg/kg i.p.): 160%
mean survival time (MST) ([8]; 4.2 mg/kg i.p.): 16.5 days
T/C (average tumor volume) (Sarcoma 180 solid tumor; 4.2 mg/kg i.p.): 0.37
average tumor volume (V) (Sarcoma 180 solid tumor; 4.2 mg/kg i.p.): 529 mm^3
